In patent publication US20050245571A1, “Amine derivative” (priority 2001, published 2005):

How the values were obtained:
human SSTR2 = target: T1, human SSTR2 (Homo sapiens, UniProt P30874); experiment: Binding inhibition of 125I-somatostatin-14, SSTR2 membrane fraction; details: 125I-somatostatin-14 binding, CHO membrane fraction, 25° C. 60 minutes, Hill plots
T1 construct: expressed in transfected cells; host or cells: CHO (dhfr-) cells, strain SSTR2-HS5-9, plasmid pAC01 (pAKKO-111 vector)
Experimental: (4) Cloning of Human Somatostatin Receptor Protein Subtype 2 (SSTR2) DNA
pAKKO-111 mentioned under the above (2) was used as the expression vector in CHO (Chinese Hamster Ovary) cells. 5 μg of the plasmid having human SSTR2 cDNA fragment obtained under the above (4) was digested with the restriction enzyme Sal I and subjected to electrophoresis on 1% agarose gel to recover the 1.1 kb DNA fragment encoding human SSTR2. Next, 1 μg of the above-mentioned expression vector pAKKO-111 (5.5 kb) was digested with Sal I to prepare the cloning site for insertion of human SSTR2 DNA fragment. Said expression vector fragment and the 1.1 kb DNA fragment were ligated with T4 DNA ligase. The reaction mixture was introduced into E. coli JM109 by the calcium chloride method to obtain the expression plasmid pAC01 in which human SSTR2 DNA fragment was inserted in regular direction against the promoter from the transformants. This transformant is expressed as Escherichia coli JM109/pAC-01.
1×10^6 CHO (dhfr^−) cells were cultured for 24 hours in HAM F12 medium containing 10% bovine fetal serum on a laboratory dish of 8 cm in diameter. To the cells was transfected 10 μg of the human SSTR2 cDNA expression plasmid, pA-C01, obtained under the above (5) by the calcium phosphate method (Cell Phect Transfection Kit: Pharmacia). The medium was switched to DMEM medium containing 10% dialyzed bovine fetal serum 24 hours after the transfection to select the colony-forming cells (i.e. DHFR^+ cells) in this medium. Further, the selected cells were cloned from a single cell by the limiting dilution method and a cell strain which highly expresses human SSTR2, SSTR2-HS5-9, was selected.
The receptor binding inhibition rate (%) of the subject compound was calculated using each of the membrane fractions prepared in Experimental Examples 1 and 2.
The membrane fraction was diluted with a buffer solution for assay to adjust the concentration to 3 μg/ml. The diluate was placed in tubes each in quantity of 173 μl. To this were simultaneously added 2 μl of a solution of a subject compound in DMSO and 25 μl of a […] radioisotope-labeled somatostatin-14 (^125I-somatostatin-14: Amersham). For measurement of the maximum binding, a reaction mixture added with 2 μl of DMSO and 25 μl of a […] ^125I-somatostatin was prepared. For measurement of non-specific binding, a reaction mixture added with 2 μl of a 100 μM somatostatin solution in DMSO and 25 μl of a 200 pM ^125I-somatostatin solution was prepared at the same time. The mixtures were allowed to react at 25° C. for 60 minutes. Then, the reaction mixture was filtered by aspiration using a Whatman glass filter (GF-B) treated with polyethylenine. After filtration, the radioactivity of ^125I-somatostatin-14 remaining on the filter paper was measured by a γ-counter. The binding inhibition rate (%) of each subject compound was calculated by the following formula: (TB-SB)/(TB-NSB)×100 • SB: radioactivity when a compound was added • TB: maximum binding radioactivity • NSB: non-specific binding radioactivity
The binding inhibition rates were measured by changing the concentrations of the subject compound, and the 50% inhibiting concentration of the subject compound (IC50 value) was calculated by the Hill plots. The results are shown in [Table 1].

human SSTR3 = target: T2, human SSTR3 (Homo sapiens, UniProt P32745); experiment: Binding inhibition of 125I-somatostatin-14, SSTR3 membrane fraction; details: 125I-somatostatin-14 binding, CHO membrane fraction, 25° C. 60 minutes, Hill plots
T2 construct: expressed in transfected cells; host or cells: CHO (dhfr-) cells, strain SSTR3-15-19, plasmid pA1-11-SSTR3 (pAKKO-111 vector)

human SSTR5 = target: T3, human SSTR5 (Homo sapiens, UniProt P35346); experiment: Binding inhibition of 125I-somatostatin-14, SSTR5 membrane fraction; details: 125I-somatostatin-14 binding, CHO membrane fraction, 25° C. 60 minutes, Hill plots
T3 construct: expressed in transfected cells; host or cells: CHO (dhfr-) cells, strain SSTR5-32-4, plasmid pA1-11-SSTR5 (pAKKO-111 vector)

glucagon secretion = experiment: Glucagon Secretion Inhibitory Activity Test (Rat); format: in vivo; details: SD rats male fasted, 3 mg/kg oral, insulin 2 U/kg s.c. 120 minutes later, plasma glucagon 30 minutes after insulin
Experimental: Glucagon Secretion Inhibitory Activity Test (Rat)
A 0.5% methylcellulose suspension containing the subject compound (3 mg/kg body weight) (compound administration group) or a 0.5% methylcellulose suspension (compound non-administration group) was orally administered to SD rats (male, 7 weeks of age) after fasting overnight, and 120 minutes later, insulin (2 U/kg body weight, Novo Nordisk) was subcutaneously administered. After 30 minutes from the insulin administration, the blood was,drawn from the vein of eyegrounds of the rats using capillary, and blood plasma was separated by centrifugation. The concentration of glucagon in the obtained blood plasma was measured by radioimmunoassay using a Daiichi glucagon kit (Daiichi Isotope). As a non-treated group, the concentration of glucagon in the blood plasma of rat of the compound non-administration group free of insulin administration was measured in the same manner as above. […]

T3 sequence (P35346 whole entry): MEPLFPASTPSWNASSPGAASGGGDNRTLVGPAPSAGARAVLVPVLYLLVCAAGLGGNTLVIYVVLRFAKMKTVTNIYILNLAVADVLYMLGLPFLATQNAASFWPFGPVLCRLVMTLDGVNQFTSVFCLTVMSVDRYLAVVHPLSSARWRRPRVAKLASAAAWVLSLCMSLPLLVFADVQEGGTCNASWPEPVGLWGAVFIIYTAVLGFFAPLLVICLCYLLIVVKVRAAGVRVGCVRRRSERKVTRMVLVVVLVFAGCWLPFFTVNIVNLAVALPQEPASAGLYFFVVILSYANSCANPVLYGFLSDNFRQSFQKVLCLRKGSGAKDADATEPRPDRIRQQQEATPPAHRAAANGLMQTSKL
T2 sequence (P32745 whole entry): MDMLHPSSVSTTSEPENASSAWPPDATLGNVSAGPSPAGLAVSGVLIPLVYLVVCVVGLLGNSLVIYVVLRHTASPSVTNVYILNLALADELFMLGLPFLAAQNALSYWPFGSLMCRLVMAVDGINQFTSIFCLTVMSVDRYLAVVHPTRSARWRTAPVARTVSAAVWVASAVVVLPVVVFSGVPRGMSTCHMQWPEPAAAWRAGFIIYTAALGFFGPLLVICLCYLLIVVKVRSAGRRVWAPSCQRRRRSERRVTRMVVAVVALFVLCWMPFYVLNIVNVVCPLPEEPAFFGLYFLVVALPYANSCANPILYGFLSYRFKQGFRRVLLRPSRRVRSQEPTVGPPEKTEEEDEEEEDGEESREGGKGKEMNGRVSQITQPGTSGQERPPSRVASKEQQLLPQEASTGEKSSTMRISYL
T1 sequence (P30874 whole entry): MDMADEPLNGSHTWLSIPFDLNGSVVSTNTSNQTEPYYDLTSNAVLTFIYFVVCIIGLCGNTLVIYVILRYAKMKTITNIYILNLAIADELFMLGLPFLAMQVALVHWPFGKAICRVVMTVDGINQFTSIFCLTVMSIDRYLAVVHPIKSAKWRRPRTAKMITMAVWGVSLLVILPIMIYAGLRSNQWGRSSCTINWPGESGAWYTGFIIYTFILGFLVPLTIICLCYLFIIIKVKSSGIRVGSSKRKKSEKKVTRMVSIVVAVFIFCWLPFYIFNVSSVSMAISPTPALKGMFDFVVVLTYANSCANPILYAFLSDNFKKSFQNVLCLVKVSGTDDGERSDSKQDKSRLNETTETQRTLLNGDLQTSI

| SMILES | IC50 (human SSTR2) [nM] | IC50 (human SSTR3) [nM] | IC50 (human SSTR5) [nM] | glucagon secretion (% of control) (glucagon secretion) |
| --- | --- | --- | --- | --- |
| CC(c1c[nH]c2ccccc12)C(NC(=O)N1CCC(Oc2ccc(O)cc2)CC1)C(=O)N1C[C@@H](CN(C)C)Cc2cc(Cl)ccc21 (single isomer, unassigned; (-)) [Example 141] | 0.05 | 3 | 10 |  |
| C[C@@H](c1c[nH]c2ccccc12)[C@@H](NC(=O)C1CCN(C(=O)c2cc3ccccc3n2C)CC1)C(=O)N1C[C@@H](CN(C)C)Cc2cc(Cl)ccc21 [Example 6, N-[(1R,2S)-1-[((3R)-6-chloro-3-[(dimethylamino)methyl]-3,4-dihydro-1(2H)-quinolinyl)carbonyl]-2-(1H-indol-3-yl)propyl]-1-[(1-methyl-1H-indol-2-yl)carbonyl]-4-piperidinecarboxamide] | 0.2 | 30 | 60 | 15.6 % of control |
| C[C@@H](c1c[nH]c2ccccc12)[C@@H](NC(=O)N1CCC(Oc2ccccc2)CC1)C(=O)N1C[C@@H](CN(C)C)Cc2cc(Cl)ccc21 [Example 42, N-[(1R,2S)-1-[((3R)-6-chloro-3-[(dimethylamino)methyl]-3,4-dihydro-1(2H)-quinolinyl)carbonyl]-2-(1H-indol-3-yl)propyl]-4-phenoxy-1-piperidinecarboxamide] | 0.1 | 6 | 40 | 3.0 % of control |
| C[C@@H](c1c[nH]c2ccccc12)[C@@H](NC(=O)N1CCC(Oc2ccc(F)cc2)CC1)C(=O)N1C[C@@H](CN(C)C)Cc2cc(Cl)ccc21 [Example 153, N-[(1R,2S)-1-[[(3R)-6-chloro-3-[(dimethylamino)methyl]-3,4-dihydro-1(2H)-quinolinyl]carbonyl]-2-(1H-indol-3-yl)propyl]-4-(4-fluorophenoxy)-1-piperidinecarboxamide] | 0.1 | 10 | 40 |  |
| C[C@@H](c1c[nH]c2ccccc12)[C@@H](NC(=O)N1CCN(C(=O)c2ccccc2)CC1)C(=O)N1C[C@@H](CN(C)C)Cc2cc(Cl)ccc21 [Example 157, 4-benzoyl-N-[(1R,2S)-1-[[(3R)-6-chloro-3-[(dimethylamino)methyl]-3,4-dihydro-1(2H)-quinolinyl]carbonyl]-2-(1H-indol-3-yl)propyl]-1-piperazinecarboxamide] | 0.05 | 1 | 5 |  |
